Assay results from US10806694B2, “Nanoparticles for photodynamic therapy, X-ray induced photodynamic therapy, radiotherapy, radiodynamic therapy, chemotherapy, immunotherapy, and any combination thereof” (The University of Chicago, priority 2014, dated 2020).

Experiments:
[1] = system: CT26 cells; assay: Apoptosis after PDT, Annexin V/dead cell kit, flow cytometry; format: cell-based, murine; conditions: 5 μM
Procedure: (§1) CT26 cells were incubated with 5 μM DBC-UiO or H2DBC followed by light irradiation at 0.1 W/cm^2 for 15 min (90 J/cm^2). The apoptosis induced by PDT treatment was determined with the Alexa Fluor 488 Annexin V/dead cell apoptosis kit by flow cytometry. […] Calreticulin (CRT) is a distinct biomarker exposed on the surface of cells undergoing ICD. The CRT expression was determined by flow cytometry and immunofluorescence to assess the ICD induced by DBC-UiO induced PDT. CT26 cells were treated with 5 μM DBC-UiO or H2DBC followed by light irradiation at 0.1 W/cm^2 for 15 min (90 J/cm^2). For flow cytometry analysis, cells were collected and stained with Alexa Fluor 488-CRT antibody and propidium iodide (PI). The fluorescence intensity of stained cells was gated on PI-negative cells. For immunostaining analysis, the cells were stained with AlexaFluor 488-CRT conjugated antibody and DAPI nuclei stain, and observed using confocal laser scanning microscopy (CLSM).

[2] = system: CT26 cells; assay: Calreticulin (CRT) surface expression after PDT (immunogenic cell death); format: cell-based, murine; conditions: 5 μM
Procedure: as §1

[3] = UV-visible absorption, extinction coefficient; format: physicochemical
Procedure: The UV-visible absorption spectra of H2DBP and DBP-UiO were acquired with a UV-vis spectrophotometer (UV-2401 PC, Shimadzu Corporation, Kyoto, Japan). The H2DBP solution and DBP-UiO NMOF suspension were prepared in 0.67 mM phosphate buffer saline (PBS). The absorption of standard solutions of H2DBP at concentrations of 0.2, 0.4, 0.6, 0.8, 1, 1.5, 4 and 8 mg/L were acquired and the standard curve was plotted by linear fitting of the absorbance at 402 nm. The extinction coefficients of H2DBP at 402 nm and 619 nm are 2.2×10^5 and 1.7×10^3 M^−1cm^−1, respectively.
UV-visible absorption spectroscopy confirmed the photophysical properties of chlorin-based PSs. H2DBC has a split Soret band at λmax=408 nm and four Q-bands at 504, 534, 591, and 643 nm. […] The lowest energy Q-band of DBC-UiO has thus red-shifted by 13 nm from DBP-UiO, with an ε value of 24600 M^−1·cm^−1. H2DBC has an ε value of 21800 M^−1·cm^−1 for the lowest energy Q-band.

[4] = system: SQ20B subcutaneous xenograft murine models; assay: In vivo PDT efficacy; parameters: species or system mice; conditions: 3.5 mg/kg intratumoral, 180 J/cm^2, single treatment
Procedure: The PDT efficacy of DBP-UiO was investigated using SQ20B subcutaneous xenograft murine models. Tumor bearing mice were established by subcutaneous inoculation of SQ20B cell suspension (5×10^6 cells per mouse) into the right flank region of 6-week athymic female nude mice. Three groups were included for comparison: PBS as control, H2DBP, and DBP-UiO. When tumors reached 100 mm^3, PBS, H2DBP, and DBP-UiO were intratumorally injected to animals at a DBP dose of 3.5 mg/kg. At 12 h post-injection, mice were anesthetized with 2% (v/v) isoflurane and tumors were irradiated with a 640 nm LED for 30 min. The light intensity was measured as 100 mW/cm^2, and the total light dose was 180 J/cm^2. Both injection and PDT were performed once.
To evaluate the therapeutic efficacy, tumor growth and body weight evolution were monitored. The tumor size was measured with a digital caliper every day. Tumor volumes were calculated as follows: (width^2×length)/2. Finally, all mice were sacrificed on Day 8, and the excised tumors were photographed and weighed. Tumors were fixed with formalin. Paraffin-embedded 5 μm tumor sections were stained with hematoxylin and erosin (H&E) and observed with light microscopy (Pannoramic Scan Whole Slide Scanner, Perkin Elmer, Waltham, Mass., United States of America).
In vivo experiments on SQ20B subcutaneous xenograft murine models were carried out. […]

[5] = system: human head and neck cancer cells SQ20B; assay: In vitro PDT cytotoxicity (MTS); format: cell-based; conditions: 5-100 μM ligand, 640 nm LED 100 mW/cm^2, 15 min (90 J/cm^2) or 30 min (180 J/cm^2)
Procedure: The cytotoxicity of DBP-UiO and H2DBP was evaluated in human head and neck cancer cells SQ20B which are resistant to cisplatin and conventional radiotherapy. SQ20B cells were seeded on 96-well plates at 2000 cells/well. The cells were treated with DBP-UiO and H2DBP at various ligand concentrations (5, 10, 20, 50 and 100 μM base on ligand concentrations) after a 24-h incubation. A further incubation of 4 h was allowed, followed by replacing the culture medium with 100 μL of fresh DMEM/F12 medium. The cells were irradiated with LED light (640 nm) at 100 mW/cm^2 for 15 min (total light dose 90 J/cm^2) or 30 min (total light dose 180 J/cm^2), respectively. The cells without irradiation treatment served as controls. The cells were further incubated to achieve a total incubation time of 72 h with DBP-UiO or H2DBP. The cell viability was detected by (3-(4,5-dimethylthiazol-2-yl)-5-(3-carboxymethoxyphenyl)-2-(4-sulfophenyl)-2H-tetra-zolium) (MTS) assay (Promega, Madison, Wis., United States of America).
To further confirm the PDT efficacy of DBP-UiO, SQ20B cancer cells were treated with H2DBP or DBP-UiO at various concentrations (5, 10, 20, 50 and 100 μM based on ligand concentrations), the cells were irradiated with LED light (640 nm, 100 mW/cm^2) for 15 min (total light dose 90 J/cm^2) or 30 min (total light dose 180 J/cm^2), respectively.

5, 15-di(p-benzoato)chlorin [H2DBC]
apoptosis or necrosis ([1]; in the dark): No apoptosis or necrosis was observed
apoptosis ([1]; light irradiation 90 J/cm^2): significant amounts of cells underwent apoptosis
surface CRT expression ([2]; light irradiation 90 J/cm^2): significant amounts of CRT were detected
surface CRT expression ([2]; without light irradiation): no surface CRT expression
ε value of the lowest energy Q-band [3]: 21800 M⁻¹ cm⁻¹

O=C(O)c1ccc(-c2c3nc(cc4ccc([nH]4)c(-c4ccc(C(=O)O)cc4)c4nc(cc5ccc2[nH]5)C=C4)C=C3)cc1 [H2DBP, 5,15-di(p-benzoato)porphyrin]
tumor growth [4]: slightly suppressed after PDT, however accelerated after 5 days and exhibited no difference to the control group at the endpoint
PDT efficacy (cell viability) [5]: moderate PDT efficacy only at 20 μM dose with 30 min light irradiation
extinction coefficient at 402 nm ([3]; PBS): 220000 M⁻¹ cm⁻¹
extinction coefficient at 619 nm ([3]; PBS): 1700 M⁻¹ cm⁻¹
